Results published in the NIST ThermoML archive (doi:10.1021/je400332j).
Numbers after ± are expanded uncertainties.

Assay: xn = mol fraction of the nth substance listed
Settings: 101 kPa, Liquid; for viscosity: Concentric cylinders viscometry; for mass density: Vibrating tube method

`CCCCCCn1cc[n+](C)c1.F[B-](F)(F)F` [1-hexyl-3-methylimidazolium tetrafluoroborate] + CCn1cc[n+](C)c1.F[B-](F)(F)F gave a viscosity (293.15 K, x2 = 0) of 280.4 ± 23 mPa·s, a viscosity (293.15 K, x2 = 0.1009) of 244.3 ± 20 mPa·s and a viscosity (293.15 K, x2 = 0.2005) of 210.7 ± 17 mPa·s. The viscosity (293.15 K, x2 = 0.3003) was 179.6 ± 15 mPa·s, the viscosity (293.15 K, x2 = 0.4001) was 151.7 ± 12 mPa·s and the viscosity (293.15 K, x2 = 0.4999) was 127.1 ± 10 mPa·s. For the same molecule, the viscosity (293.15 K, x2 = 0.6007) was 105 ± 8.5 mPa·s, the viscosity (293.15 K, x2 = 0.7004) was 86.22 ± 7 mPa·s and the viscosity (293.15 K, x2 = 0.8001) was 69.78 ± 5.6 mPa·s. For the same molecule, the viscosity (293.15 K, x2 = 0.8998) was 56.02 ± 4.5 mPa·s, the mass density (293.15 K, x2 = 0) was 1147.5 ± 1.1 kg/m3 and the mass density (293.15 K, x2 = 0.1009) was 1157.3 ± 1.1 kg/m3. For the same molecule, the mass density (293.15 K, x2 = 0.2005) was 1168.1 ± 1.1 kg/m3, the mass density (293.15 K, x2 = 0.3003) was 1179.5 ± 1.1 kg/m3 and the mass density (293.15 K, x2 = 0.4001) was 1191.4 ± 1.1 kg/m3. For the same molecule, the mass density (293.15 K, x2 = 0.4999) was 1204.3 ± 1.1 kg/m3, the mass density (293.15 K, x2 = 0.6007) was 1218.1 ± 1.1 kg/m3 and the mass density (293.15 K, x2 = 0.7004) was 1232.7 ± 1.1 kg/m3. For the same molecule, the mass density (293.15 K, x2 = 0.8001) was 1248.5 ± 1.1 kg/m3, the mass density (293.15 K, x2 = 0.8998) was 1265.3 ± 1.1 kg/m3 and the viscosity (298.15 K, x2 = 0) was 206.3 ± 17 mPa·s. For the same molecule, the viscosity (298.15 K, x2 = 0.1009) was 180.8 ± 15 mPa·s, the viscosity (298.15 K, x2 = 0.2005) was 157.2 ± 13 mPa·s and the viscosity (298.15 K, x2 = 0.3003) was 135.1 ± 11 mPa·s. For the same molecule, the viscosity (298.15 K, x2 = 0.4001) was 115.2 ± 9.4 mPa·s, the viscosity (298.15 K, x2 = 0.4999) was 97.48 ± 7.9 mPa·s and the viscosity (298.15 K, x2 = 0.6007) was 81.5 ± 6.6 mPa·s. The viscosity (298.15 K, x2 = 0.7004) was 67.79 ± 5.5 mPa·s, the viscosity (298.15 K, x2 = 0.8001) was 55.7 ± 4.5 mPa·s and the viscosity (298.15 K, x2 = 0.8998) was 45.42 ± 3.7 mPa·s. It also gave a mass density (298.15 K, x2 = 0) of 1144.1 ± 1.1 kg/m3, a mass density (298.15 K, x2 = 0.1009) of 1153.9 ± 1.1 kg/m3 and a mass density (298.15 K, x2 = 0.2005) of 1164.7 ± 1.1 kg/m3. It also gave a mass density (298.15 K, x2 = 0.3003) of 1176.1 ± 1.1 kg/m3, a mass density (298.15 K, x2 = 0.4001) of 1188 ± 1.1 kg/m3 and a mass density (298.15 K, x2 = 0.4999) of 1200.8 ± 1.1 kg/m3. The mass density (298.15 K, x2 = 0.6007) was 1214.6 ± 1.1 kg/m3, the mass density (298.15 K, x2 = 0.7004) was 1229.1 ± 1.1 kg/m3 and the mass density (298.15 K, x2 = 0.8001) was 1244.9 ± 1.1 kg/m3. The mass density (298.15 K, x2 = 0.8998) was 1261.7 ± 1.1 kg/m3, the viscosity (303.15 K, x2 = 0) was 154.9 ± 13 mPa·s and the viscosity (303.15 K, x2 = 0.1009) was 136.9 ± 11 mPa·s. The viscosity (303.15 K, x2 = 0.2005) was 119.8 ± 9.8 mPa·s, the viscosity (303.15 K, x2 = 0.3003) was 103.8 ± 8.4 mPa·s and the viscosity (303.15 K, x2 = 0.4001) was 89.33 ± 7.2 mPa·s. For the same molecule, the viscosity (303.15 K, x2 = 0.4999) was 76.33 ± 6.2 mPa·s, the viscosity (303.15 K, x2 = 0.6007) was 64.52 ± 5.2 mPa·s and the viscosity (303.15 K, x2 = 0.7004) was 54.31 ± 4.4 mPa·s. The viscosity (303.15 K, x2 = 0.8001) was 45.2 ± 3.6 mPa·s, the viscosity (303.15 K, x2 = 0.8998) was 37.38 ± 3 mPa·s and the mass density (303.15 K, x2 = 0) was 1140.6 ± 1 kg/m3. For the same molecule, the mass density (303.15 K, x2 = 0.1009) was 1150.5 ± 1.1 kg/m3, the mass density (303.15 K, x2 = 0.2005) was 1161.2 ± 1.1 kg/m3 and the mass density (303.15 K, x2 = 0.3003) was 1172.5 ± 1.1 kg/m3. For the same molecule, the mass density (303.15 K, x2 = 0.4001) was 1184.4 ± 1.1 kg/m3, the mass density (303.15 K, x2 = 0.4999) was 1197.2 ± 1.1 kg/m3 and the mass density (303.15 K, x2 = 0.6007) was 1211 ± 1.1 kg/m3. The mass density (303.15 K, x2 = 0.7004) was 1225.5 ± 1.1 kg/m3, the mass density (303.15 K, x2 = 0.8001) was 1241.2 ± 1.1 kg/m3 and the mass density (303.15 K, x2 = 0.8998) was 1257.9 ± 1.1 kg/m3. For the same molecule, the viscosity (308.15 K, x2 = 0) was 118.7 ± 9.7 mPa·s, the viscosity (308.15 K, x2 = 0.1009) was 105.5 ± 8.6 mPa·s and the viscosity (308.15 K, x2 = 0.2005) was 92.98 ± 7.5 mPa·s. For the same molecule, the viscosity (308.15 K, x2 = 0.3003) was 81.23 ± 6.6 mPa·s, the viscosity (308.15 K, x2 = 0.4001) was 70.51 ± 5.7 mPa·s and the viscosity (308.15 K, x2 = 0.4999) was 60.8 ± 4.9 mPa·s. It also gave a viscosity (308.15 K, x2 = 0.6007) of 51.94 ± 4.2 mPa·s, a viscosity (308.15 K, x2 = 0.7004) of 44.18 ± 3.6 mPa·s and a viscosity (308.15 K, x2 = 0.8001) of 37.22 ± 3 mPa·s. It also gave a viscosity (308.15 K, x2 = 0.8998) of 31.18 ± 2.5 mPa·s, a mass density (308.15 K, x2 = 0) of 1137.2 ± 1 kg/m3 and a mass density (308.15 K, x2 = 0.1009) of 1147.1 ± 1.1 kg/m3. The mass density (308.15 K, x2 = 0.2005) was 1157.8 ± 1.1 kg/m3, the mass density (308.15 K, x2 = 0.3003) was 1169 ± 1.1 kg/m3 and the mass density (308.15 K, x2 = 0.4001) was 1180.9 ± 1.1 kg/m3. The mass density (308.15 K, x2 = 0.4999) was 1193.6 ± 1.1 kg/m3, the mass density (308.15 K, x2 = 0.6007) was 1207.4 ± 1.1 kg/m3 and the mass density (308.15 K, x2 = 0.7004) was 1221.8 ± 1.1 kg/m3. It also gave a mass density (308.15 K, x2 = 0.8001) of 1237.5 ± 1.1 kg/m3, a mass density (308.15 K, x2 = 0.8998) of 1254.2 ± 1.1 kg/m3 and a viscosity (313.15 K, x2 = 0) of 92.56 ± 7.5 mPa·s. The viscosity (313.15 K, x2 = 0.1009) was 82.73 ± 6.7 mPa·s, the viscosity (313.15 K, x2 = 0.2005) was 73.45 ± 5.9 mPa·s and the viscosity (313.15 K, x2 = 0.3003) was 64.64 ± 5.2 mPa·s. The viscosity (313.15 K, x2 = 0.4001) was 56.57 ± 4.6 mPa·s, the viscosity (313.15 K, x2 = 0.4999) was 49.22 ± 4 mPa·s and the viscosity (313.15 K, x2 = 0.6007) was 42.45 ± 3.4 mPa·s. The viscosity (313.15 K, x2 = 0.7004) was 36.47 ± 2.9 mPa·s, the viscosity (313.15 K, x2 = 0.8001) was 31.06 ± 2.5 mPa·s and the viscosity (313.15 K, x2 = 0.8998) was 26.32 ± 2.1 mPa·s. The mass density (313.15 K, x2 = 0) was 1133.7 ± 1 kg/m3, the mass density (313.15 K, x2 = 0.1009) was 1143.6 ± 1.1 kg/m3 and the mass density (313.15 K, x2 = 0.2005) was 1154.3 ± 1.1 kg/m3. For the same molecule, the mass density (313.15 K, x2 = 0.3003) was 1165.5 ± 1.1 kg/m3, the mass density (313.15 K, x2 = 0.4001) was 1177.4 ± 1.1 kg/m3 and the mass density (313.15 K, x2 = 0.4999) was 1190.1 ± 1.1 kg/m3. For the same molecule, the mass density (313.15 K, x2 = 0.6007) was 1203.8 ± 1.1 kg/m3, the mass density (313.15 K, x2 = 0.7004) was 1218.2 ± 1.1 kg/m3 and the mass density (313.15 K, x2 = 0.8001) was 1233.8 ± 1.1 kg/m3. For the same molecule, the mass density (313.15 K, x2 = 0.8998) was 1250.4 ± 1.1 kg/m3, the viscosity (318.15 K, x2 = 0) was 73.37 ± 5.9 mPa·s and the viscosity (318.15 K, x2 = 0.1009) was 65.95 ± 5.3 mPa·s. The viscosity (318.15 K, x2 = 0.2005) was 58.94 ± 4.8 mPa·s, the viscosity (318.15 K, x2 = 0.3003) was 52.24 ± 4.2 mPa·s and the viscosity (318.15 K, x2 = 0.4001) was 46.08 ± 3.7 mPa·s. The viscosity (318.15 K, x2 = 0.4999) was 40.41 ± 3.3 mPa·s, the viscosity (318.15 K, x2 = 0.6007) was 35.16 ± 2.8 mPa·s and the viscosity (318.15 K, x2 = 0.7004) was 30.49 ± 2.4 mPa·s. The viscosity (318.15 K, x2 = 0.8001) was 26.23 ± 2.1 mPa·s and the viscosity (318.15 K, x2 = 0.8998) was 22.48 ± 1.8 mPa·s.
